According to ChEMBL document CHEMBL1201862, “PubChem BioAssay data set” (2004):
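Cultured in 96-well plates, cells were exposed to test compound for 48 hours across five concentrations. Here, GI50 denotes the concentration required for 50% inhibition of growth.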 Calls of active or inactive are those of the source. Cut-off read from the data, not from the text of the source: active = GI50 up to about 1.1 µM and inactive = higher.

Tests used:
Assay in all cases: NCI-60 cell line screen, 48 h
IGROV-1 = test system: IGROV-1
OVCAR-3 = test system: OVCAR-3
T47D = test system: T47D
OVCAR-4 = test system: OVCAR-4
NCI-H460 = test system: NCI-H460
Malme-3M = test system: Malme-3M
U-251 = test system: U-251
LOX IMVI = test system: LOX IMVI
SK-MEL-2 = test system: SK-MEL-2
UO-31 = test system: UO-31
HOP-92 = test system: HOP-92
MDA-MB-231 = test system: MDA-MB-231
A498 = test system: A498
HCC 2998 = test system: HCC 2998
M14 = test system: M14
SR = test system: SR
HCT-116 = test system: HCT-116
RXF 393 = test system: RXF 393
UACC-257 = test system: UACC-257
SF-539 = test system: SF-539

Measured: GI50

Nc1nnc2oc3ccc4ccccc4c3cc1-2
inactive: IGROV-1 30.6 µM | OVCAR-3 34.8 µM | T47D 11.4 µM | OVCAR-4 30.8 µM | NCI-H460 27 µM | Malme-3M 23 µM | U-251 35.9 µM | LOX IMVI 23.5 µM | SK-MEL-2 27.7 µM | UO-31 32 µM | HOP-92 26.2 µM | MDA-MB-231 24.5 µM | A498 24.6 µM | HCC 2998 20.3 µM | M14 37.4 µM | SR 23.1 µM | HCT-116 34.4 µM | RXF 393 28 µM | UACC-257 28.2 µM

CCOC(=O)c1ccc(Nc2nc3ccc(C(F)(F)F)cc3nc2C(=O)OCC)cc1
inactive: IGROV-1 > 100 µM | OVCAR-3 > 100 µM | T47D > 100 µM | NCI-H460 > 100 µM | Malme-3M > 100 µM | U-251 > 100 µM | LOX IMVI > 100 µM | SF-539 > 100 µM | UO-31 > 100 µM | HOP-92 > 100 µM | MDA-MB-231 > 100 µM | A498 > 100 µM | HCC 2998 > 100 µM | M14 > 100 µM | SR > 100 µM | HCT-116 > 100 µM | RXF 393 > 100 µM | UACC-257 > 100 µM

C=CC(O)C#Cc1cnc(OC)nc1OC (stereo unspecified)
inactive: IGROV-1 > 100 µM | OVCAR-3 > 100 µM | T47D > 100 µM | OVCAR-4 > 100 µM | NCI-H460 > 100 µM | U-251 > 100 µM | LOX IMVI > 100 µM | SF-539 > 100 µM | SK-MEL-2 > 100 µM | UO-31 > 100 µM | HOP-92 > 100 µM | MDA-MB-231 > 100 µM | A498 16.3 µM | HCC 2998 > 100 µM | M14 > 100 µM | SR > 100 µM | HCT-116 82.8 µM | RXF 393 > 100 µM | UACC-257 > 100 µM

Cc1nc2c(C)c3c([nH]c4ccc(Cl)cc43)c(C)c2c(O)c1C
inactive: IGROV-1 5.27 µM | OVCAR-3 7.94 µM | T47D 4.66 µM | OVCAR-4 7.24 µM | NCI-H460 2.07 µM | Malme-3M 8.43 µM | U-251 5.73 µM | LOX IMVI 4.06 µM | SF-539 6.21 µM | SK-MEL-2 65.2 µM | UO-31 3.66 µM | HOP-92 9.53 µM | MDA-MB-231 2.44 µM | A498 15.3 µM | HCC 2998 6.46 µM | M14 10.9 µM | SR 2.19 µM | HCT-116 4.29 µM | UACC-257 13.9 µM

CC(=O)OCC1OC(n2c3c(cc(C#N)c2=S)CCC3)C(OC(C)=O)C(OC(C)=O)C1OC(C)=O (stereo unspecified)
inactive: IGROV-1 > 100 µM | T47D > 100 µM | OVCAR-4 > 100 µM | NCI-H460 > 100 µM | Malme-3M > 100 µM | U-251 > 100 µM | LOX IMVI > 100 µM | SF-539 > 100 µM | SK-MEL-2 > 100 µM | UO-31 > 100 µM | HOP-92 > 100 µM | MDA-MB-231 > 100 µM | A498 > 100 µM | HCC 2998 > 100 µM | M14 > 100 µM | SR 68.4 µM | HCT-116 > 100 µM | RXF 393 > 100 µM | UACC-257 > 100 µM

CC(=O)N(CCc1ccccc1)C(C)(C#N)c1ccccc1 (stereo unspecified)
inactive: IGROV-1 > 100 µM | OVCAR-3 > 100 µM | T47D > 100 µM | OVCAR-4 > 100 µM | Malme-3M > 100 µM | U-251 > 100 µM | LOX IMVI > 100 µM | SF-539 > 100 µM | SK-MEL-2 > 100 µM | UO-31 > 100 µM | HOP-92 > 100 µM | MDA-MB-231 > 100 µM | A498 > 100 µM | HCC 2998 > 100 µM | M14 > 100 µM | SR > 100 µM | HCT-116 > 100 µM | RXF 393 > 100 µM | UACC-257 > 100 µM

Cc1sccc1C(=S)Nc1ccc(Cl)c(/C=N/OC(C)(C)C)c1
inactive: IGROV-1 13.5 µM | OVCAR-3 13.9 µM | T47D 10.6 µM | OVCAR-4 15.2 µM | Malme-3M 15.1 µM | U-251 21.6 µM | LOX IMVI 26.6 µM | SF-539 31.5 µM | SK-MEL-2 15.5 µM | UO-31 12.5 µM | HOP-92 13.9 µM | MDA-MB-231 13.3 µM | A498 23.8 µM | HCC 2998 16.4 µM | M14 17.9 µM | SR 17.6 µM | HCT-116 14.1 µM | RXF 393 17.2 µM | UACC-257 17 µM

CC(=O)O[C@@H]1[C@H](OC2CCCCC2(c2ccccc2)c2ccccc2)O[N+]([O-])=CC12CCCCC2 (stereo partly specified)
inactive: IGROV-1 20.1 µM | OVCAR-3 14.9 µM | T47D 18.4 µM | NCI-H460 18.2 µM | U-251 17 µM | LOX IMVI 22 µM | SF-539 20 µM | UO-31 17.5 µM | HOP-92 24.5 µM | MDA-MB-231 15.4 µM | A498 16.3 µM | HCC 2998 17.1 µM | M14 18.7 µM | SR 32 µM | HCT-116 17.6 µM | RXF 393 17.8 µM | UACC-257 17.1 µM

COc1cccc(C[C@H]2COC(=O)[C@]2(O)Cc2cccc(OC)c2)c1
inactive: IGROV-1 > 100 µM | OVCAR-3 97.5 µM | T47D 18.1 µM | OVCAR-4 90.4 µM | NCI-H460 48.2 µM | Malme-3M 60.5 µM | U-251 > 100 µM | LOX IMVI > 100 µM | SF-539 > 100 µM | SK-MEL-2 > 100 µM | UO-31 > 100 µM | HOP-92 79.6 µM | MDA-MB-231 > 100 µM | A498 > 100 µM | HCC 2998 70.8 µM | M14 > 100 µM | SR > 100 µM | HCT-116 > 100 µM | UACC-257 > 100 µM

O=C(NCc1cccs1)OC1CC2CCC1C2 (stereo unspecified)
inactive: IGROV-1 > 100 µM | OVCAR-3 > 100 µM | T47D > 100 µM | OVCAR-4 > 100 µM | NCI-H460 > 100 µM | Malme-3M > 100 µM | U-251 > 100 µM | LOX IMVI > 100 µM | SF-539 > 100 µM | SK-MEL-2 > 100 µM | UO-31 > 100 µM | HOP-92 > 100 µM | MDA-MB-231 > 100 µM | A498 > 100 µM | M14 > 100 µM | SR > 100 µM | HCT-116 > 100 µM | RXF 393 > 100 µM | UACC-257 > 100 µM

C[C@H]1[C@@H](c2ccccc2)O[B-](c2ccccc2)(c2ccccc2)[N+]1(C)C
inactive: IGROV-1 > 100 µM | OVCAR-3 40.6 µM | T47D 34.7 µM | OVCAR-4 > 100 µM | NCI-H460 > 100 µM | Malme-3M 54.8 µM | U-251 > 100 µM | LOX IMVI > 100 µM | SF-539 33.3 µM | SK-MEL-2 > 100 µM | UO-31 19.3 µM | HOP-92 23.8 µM | MDA-MB-231 21.4 µM | A498 86.1 µM | M14 27.7 µM | SR 21.5 µM | HCT-116 49.7 µM | RXF 393 45.5 µM | UACC-257 84.1 µM
